# Experimental data from PMC9403976, “Elucidating the path to Plasmodium prolyl-tRNA synthetase inhibitors that overcome halofuginone resistance” (Nature Communications, 2022).
# Values joined by “and” are separate entries in the source; they are usually repeats but may differ in a detail not shown here. Identical values can stand only once. Like-named read-outs stand apart in the source and are kept apart here.
# Experiments:
# [1] = system: P. falciparum Dd2-2D4; test: P. falciparum asexual blood stage (ABS) growth assay, SYBR Green, 72 h, wild-type parasites; format: cell-based, Plasmodium falciparum; settings: for parasite growth, replicate wells (Fig 1b): Dd2-2D4
# [2] = system: halofuginone-induced P. falciparum (elevated proline homeostasis); test: P. falciparum ABS growth assay, SYBR Green, 72 h, halofuginone-induced parasites; format: cell-based, Plasmodium falciparum; settings: Halofuginone-Induced
# Method in brief: (§1)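 SYBR Green 1 fluorescence after 72 h quantified growth of erythrocytic-stage Dd2 lines seeded at 1% parasitemia and 1% hematocrit. Compounds were tested in triplicate dose-response format in RPMI with 0.5% Albumax, referenced to 10 μM dihydroartemisinin and untreated wells.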
# [3] = system: HFGR-I P. falciparum (elevated proline homeostasis and PfcProRS^L482H); test: P. falciparum ABS growth assay, SYBR Green, 72 h, HFGR-I parasites; format: cell-based, Plasmodium falciparum; settings: HFGR-I, listed as Halofuginone (1)
# Method in brief: as §1
# [4] = system: P. falciparum Dd2-2D4 NCP26 selections S1-3; test: ABS growth assay on bulk populations and clones from NCP26 resistance selections S1-3; format: cell-based, Plasmodium falciparum; settings: for EC50: Plasmodium falciparum; for Fold-change Resistance: independent experiments
# Protocol: In short, P. falciparum erythrocytic-stage parasites at 1% parasitemia and 1% hematocrit in RPMI + 0.5% Albumax were seeded at 40 μL/well in 384-well plates with test compounds in triplicate, dose-response format with 10 μM dihydroartemisinin as a kill-control and blank (no compound) wells as a growth-control. […] After 72 h, growth was quantified by measuring fluorescence (Molecular Devices SpectraMax iD5) following SYBR Green 1 staining. Data were analyzed in Excel and plotted in PRISM (V. 8.4.3–9.1.0, GraphPad).
# This cycle was repeated for ~50 generations (~100 days), corresponding to 5–6 cycles of drug pressure.
# Clonal parasites were isolated from each selection flask by limiting dilution of ring stage parasites in 96-well plates to an average of 0.8 and 0.2 parasites per well.
# [5] = molecular target: T1, PfcProRS (Plasmodium falciparum, UniProt Q8I5R7); format: binding; settings: for dose-response signal (normalized), SI Fig 8: single replicates, listed as Halofuginone (1)
# T1 construct: made in house; host or cells: E. coli SoluBL-21
# T1 sequence (Q8I5R7 249-746): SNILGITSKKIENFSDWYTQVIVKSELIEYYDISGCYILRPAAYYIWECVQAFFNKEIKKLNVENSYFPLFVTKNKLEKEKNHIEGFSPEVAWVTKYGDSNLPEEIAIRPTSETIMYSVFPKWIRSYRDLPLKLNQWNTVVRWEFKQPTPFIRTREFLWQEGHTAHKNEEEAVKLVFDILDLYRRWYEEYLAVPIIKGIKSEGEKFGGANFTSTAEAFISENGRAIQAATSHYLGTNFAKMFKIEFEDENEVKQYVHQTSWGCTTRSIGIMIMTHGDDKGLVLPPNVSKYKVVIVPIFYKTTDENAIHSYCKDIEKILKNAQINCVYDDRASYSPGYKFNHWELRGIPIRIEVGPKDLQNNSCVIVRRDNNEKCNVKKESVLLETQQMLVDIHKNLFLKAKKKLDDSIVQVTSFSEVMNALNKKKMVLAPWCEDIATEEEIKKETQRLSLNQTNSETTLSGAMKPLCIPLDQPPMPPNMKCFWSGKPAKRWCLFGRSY
# [6] = Log[inhibitor] (M) -7.602, listed as Halofuginone (1)
# [7] = Log[inhibitor] (M) -7.903, listed as Halofuginone (1)
# [8] = Log[inhibitor] (M) -8.204, listed as Halofuginone (1)
# [9] = Log[inhibitor] (M) -8.806, listed as Halofuginone (1)
# [10] = Log[inhibitor] (M) -9.107, listed as Halofuginone (1)
# [11] = Log[inhibitor] (M) -9.408, listed as Halofuginone (1)
# [12] = Log[inhibitor] (M) -9.709, listed as Halofuginone (1)
# [13] = Log[inhibitor] (M) -10.010, listed as Halofuginone (1)
# [14] = Log[inhibitor] (M) -10.311, listed as Halofuginone (1)
compound,measurement,setting,value
O=C(CC1NCCCC1O)Cn1cnc2cc(Br)c(Cl)cc2c1=O (stereo not shown) [Halofuginone],"parasite growth, replicate wells (Fig 1b)",[1]; Log[inhibitor] (M) -7.000,1.00E+00
same,"parasite growth, replicate wells (Fig 1b)",[1]; Log[inhibitor] (M) -7.301,1.00E+00
same,"parasite growth, replicate wells (Fig 1b)",[1]; [6],0.00E+00 (2×) and 1.00E+00
same,"parasite growth, replicate wells (Fig 1b)",[1]; [7],2.00E+00 (2×) and 0.00E+00
same,"parasite growth, replicate wells (Fig 1b)",[1]; [8],1.00E+00 (2×) and 0.00E+00
same,"parasite growth, replicate wells (Fig 1b)",[1]; Log[inhibitor] (M) -8.505,0.00E+00
same,"parasite growth, replicate wells (Fig 1b)",[1]; [9],0.00E+00 (2×) and -1.00E+00
same,"parasite growth, replicate wells (Fig 1b)",[1]; [10],5.00E+00 (2×) and 4.00E+00
same,"parasite growth, replicate wells (Fig 1b)",[1]; [11],9.10E+01 and 8.70E+01 and 8.90E+01
same,"parasite growth, replicate wells (Fig 1b)",[1]; [12],1.04E+02 and 1.07E+02 (2×)
same,"parasite growth, replicate wells (Fig 1b)",[1]; [13],1.06E+02 and 1.04E+02 (2×)
same,"parasite growth, replicate wells (Fig 1b)",[1]; [14],9.80E+01 and 9.90E+01 and 9.70E+01
same,EC50,"[1]; Plasmodium falciparum, DD2, SI Fig 16b, values on -log scale, read-out: ABS - Dd2-2D4 (converted)",0.519 nM
same,"parasite growth, replicate wells (Fig 1b)",[2]; Log[inhibitor] (M) -7.000,1.00E+00
same,"parasite growth, replicate wells (Fig 1b)",[2]; Log[inhibitor] (M) -7.301,6.00E+00
same,"parasite growth, replicate wells (Fig 1b)",[2]; [6],2.30E+01 and 2.20E+01 (2×)
same,"parasite growth, replicate wells (Fig 1b)",[2]; [7],8.60E+01 (2×) and 9.10E+01
same,"parasite growth, replicate wells (Fig 1b)",[2]; [8],1.04E+02 and 1.02E+02 (2×)
same,"parasite growth, replicate wells (Fig 1b)","[2]; Log[inhibitor] (M) -8.505, listed as Halofuginone (1)",1.05E+02 and 1.03E+02 and 9.50E+01
same,"parasite growth, replicate wells (Fig 1b)",[2]; [9],9.20E+01 and 9.40E+01 and 9.50E+01
same,"parasite growth, replicate wells (Fig 1b)",[2]; [10],9.60E+01 and 9.70E+01 and 9.40E+01
same,"parasite growth, replicate wells (Fig 1b)",[2]; [11],9.80E+01 and 9.60E+01 and 9.50E+01
same,"parasite growth, replicate wells (Fig 1b)",[2]; [12],9.90E+01 and 1.00E+02 and 9.80E+01
same,"parasite growth, replicate wells (Fig 1b)",[2]; [13],1.00E+02 and 9.60E+01 and 9.90E+01
same,"parasite growth, replicate wells (Fig 1b)",[2]; [14],9.90E+01 (2×) and 1.00E+02
same,"parasite growth, replicate wells (Fig 1b)",[3]; Log[inhibitor] (M) -5.204,3.00E+00 and 2.00E+00 and 4.00E+00
same,"parasite growth, replicate wells (Fig 1b)",[3]; Log[inhibitor] (M) -5.505,4.00E+00 (2×) and 3.00E+00
same,"parasite growth, replicate wells (Fig 1b)",[3]; Log[inhibitor] (M) -5.806,3.00E+00 (2×) and 4.00E+00
same,"parasite growth, replicate wells (Fig 1b)",[3]; Log[inhibitor] (M) -6.107,6.00E+00 (2×) and 5.00E+00
same,"parasite growth, replicate wells (Fig 1b)",[3]; Log[inhibitor] (M) -6.408,1.70E+01 (2×) and 1.60E+01
same,"parasite growth, replicate wells (Fig 1b)",[3]; Log[inhibitor] (M) -6.709,5.40E+01 and 5.50E+01 (2×)
same,"parasite growth, replicate wells (Fig 1b)",[3]; Log[inhibitor] (M) -7.000,7.70E+01 and 8.00E+01 and 8.50E+01
same,"parasite growth, replicate wells (Fig 1b)",[3]; Log[inhibitor] (M) -7.010,8.50E+01 and 8.60E+01 and 8.30E+01
same,"parasite growth, replicate wells (Fig 1b)",[3]; Log[inhibitor] (M) -7.301,9.80E+01 and 1.03E+02 and 9.90E+01
same,"parasite growth, replicate wells (Fig 1b)",[3]; Log[inhibitor] (M) -7.311,9.50E+01 and 9.00E+01 and 9.10E+01
same,"parasite growth, replicate wells (Fig 1b)",[3]; Log[inhibitor] (M) -7.602,1.01E+02 and 1.03E+02 and 1.05E+02
same,"parasite growth, replicate wells (Fig 1b)",[3]; Log[inhibitor] (M) -7.903,1.04E+02 and 1.03E+02 and 1.06E+02
same,"parasite growth, replicate wells (Fig 1b)",[3]; Log[inhibitor] (M) -8.204,1.05E+02 and 1.07E+02 and 1.03E+02
same,"parasite growth, replicate wells (Fig 1b)",[3]; Log[inhibitor] (M) -8.505,1.06E+02 and 1.04E+02 and 1.02E+02
same,EC50,"[4]; DD2, cell line S1 - Clone A8, read-out: EC50 [nM] mean",0.641 nM
same,EC50,"[4]; DD2, cell line S1 - bulk population, read-out: EC50 [nM] mean",0.951 nM
same,EC50,"[4]; DD2, cell line S2 - Clone A3, read-out: EC50 [nM] mean",0.36 nM
same,EC50,"[4]; DD2, cell line S2 - Clone B9, read-out: EC50 [nM] mean",0.694 nM
same,EC50,"[4]; DD2, cell line S2 - Clone C5, read-out: EC50 [nM] mean",0.439 nM
same,EC50,"[4]; DD2, cell line S2 - bulk population, read-out: EC50 [nM] mean",0.432 nM
same,EC50,"[4]; DD2, cell line S3 - Clone B3, read-out: EC50 [nM] mean",2.51 nM
same,EC50,"[4]; DD2, cell line S3 - Clone B7, read-out: EC50 [nM] mean",2.01 nM
same,EC50,"[4]; DD2, cell line S3 - bulk population, read-out: EC50 [nM] mean",2.56 nM
same,EC50,"[4]; DD2, read-out: EC50 [nM] mean, cell line S3 - Clone B2",2.75 nM
same,Fold-change Resistance,[4]; S1 - Clone A8,0.97 and 0.75 and 1.48
same,Fold-change Resistance,[4]; S2 - Clone B9,0.89 and 1.08
same,Fold-change Resistance,[4]; S2 - Clone C5,0.56 and 0.68
same,Fold-change Resistance,[4]; S3 - Clone B2,3.65 and 3.48
same,Fold-change Resistance,[4]; S3 - Clone B3,3.93 and 2.72 and 3.23
same,Fold-change Resistance,[4]; S3 - Clone B7,2.66 and 3.07 and 3.15
same,"binding mode with respect to substrates (ATP, proline)",[5],ATP-uncompetitive binding
same,fold increased affinity in the presence of ATP,[5]; 500 μM ATP vs 0 μM ATP,> 6000 fold
same,"dose-response signal (normalized), SI Fig 8",[5]; Log[inhibitor] (M) -5.000,7.25E-01 and 6.60E-01 and 7.89E-01
same,"dose-response signal (normalized), SI Fig 8",[5]; Log[inhibitor] (M) -5.258,8.77E-01 and 7.58E-01 and 8.28E-01
same,"dose-response signal (normalized), SI Fig 8",[5]; Log[inhibitor] (M) -5.517,8.36E-01 and 8.59E-01 and 9.08E-01
same,"dose-response signal (normalized), SI Fig 8",[5]; Log[inhibitor] (M) -5.775,9.71E-01 and 9.45E-01 and 1.00E+00
same,"dose-response signal (normalized), SI Fig 8",[5]; Log[inhibitor] (M) -6.018,9.98E-01 and 1.00E+00 and 1.01E+00
same,"dose-response signal (normalized), SI Fig 8",[5]; Log[inhibitor] (M) -6.281,9.70E-01 and 1.00E+00 and 9.36E-01
same,"dose-response signal (normalized), SI Fig 8",[5]; Log[inhibitor] (M) -6.535,9.87E-01 and 8.91E-01 and 9.43E-01
same,"dose-response signal (normalized), SI Fig 8",[5]; Log[inhibitor] (M) -6.796,1.03E+00 (2×) and 1.00E+00
same,"dose-response signal (normalized), SI Fig 8",[5]; Log[inhibitor] (M) -7.056,9.55E-01 and 1.03E+00 (2×)
same,"dose-response signal (normalized), SI Fig 8",[5]; Log[inhibitor] (M) -7.319,1.02E+00 (2×) and 9.30E-01
